ChEMBL document CHEMBL1201862, “PubChem BioAssay data set” (2004)
Calls of active or inactive are those of the source.

Key:
[1] = suppression of NO production in INS-1E cells – cell-based, Griess absorbance, dry powder, set 3, dose response (AID 488870); format: functional; conditions: Rattus norvegicus
INS1 = test: INS-1E mitochondrial potential loss inhibitors – cell-based, JC-1 fluorescence, dry powder, set 2, dose response (AID 488867); format: functional; conditions: Rattus norvegicus
[2] = luciferase reporter signal suppression in cells – H4 neuroglioma cells, luminescence, dose response (AID 1990); format: functional, cell-based
HEK293 [3] = test: inhibition of NOD1-driven NF-kB reporter – cell-based, luminescence, uHTS, primary screen (AID 1578); format: functional; conditions: Homo sapiens
[4] = Luminescence Cell-Based Dose Response HTS to Identify Inhibitors of 5'UTR Stem-Loop Driven Prion Protein mRNA Translation in H4 Neuroglioblastoma Cells. [Related pubchem assays: 1827 (Project Summary), 1813 (Primary HTS)]; format: functional
[5] = alpha-synuclein stem-loop luciferase translation blockers – H4 neuroglioma cells, luminescence, confirmation (AID 1988); format: functional, cell-based
HEK293 [6] = test: cells; format: functional, cell-based; conditions: Homo sapiens
[7] = target: Nucleotide-binding oligomerization domain-containing protein 2 (Homo sapiens, UniProt Q9HC29); test: inhibition of NOD2-driven NF-kB reporter – cell-based, luminescence, uHTS, HEK293 (AID 1566); format: functional
HEK293 [8] = test: NOD2 signaling inhibitors in MDP-stimulated cells, cell-based, uHTS, luminescence (AID 2001); format: functional; conditions: Homo sapiens
HEK293 [9] = test: cells; format: functional, cell-based; conditions: Homo sapiens; remark: listed apart in the source
CHO = CHO cell viability loss, potency – luminescence, cytotoxicity control for TLR9-MyD88 binding inhibitor project, dose response (AID 588339); format: functional, cell-based, hamster; conditions: Cricetulus griseus;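 also: CHO cells stably coexpressing TLR9 and MyD88 fusions from primary screen; compound exposure lasted 48 hours before viability readout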
[10] = target: T1, Replicative DNA helicase DnaB (Mycobacterium tuberculosis, UniProt P9WMR3); test: DnaB intein splicing inhibitors, dose response, biochemical, cell-free fluorescence (AID 449749); format: functional
T1 sequence (P9WMR3 whole entry): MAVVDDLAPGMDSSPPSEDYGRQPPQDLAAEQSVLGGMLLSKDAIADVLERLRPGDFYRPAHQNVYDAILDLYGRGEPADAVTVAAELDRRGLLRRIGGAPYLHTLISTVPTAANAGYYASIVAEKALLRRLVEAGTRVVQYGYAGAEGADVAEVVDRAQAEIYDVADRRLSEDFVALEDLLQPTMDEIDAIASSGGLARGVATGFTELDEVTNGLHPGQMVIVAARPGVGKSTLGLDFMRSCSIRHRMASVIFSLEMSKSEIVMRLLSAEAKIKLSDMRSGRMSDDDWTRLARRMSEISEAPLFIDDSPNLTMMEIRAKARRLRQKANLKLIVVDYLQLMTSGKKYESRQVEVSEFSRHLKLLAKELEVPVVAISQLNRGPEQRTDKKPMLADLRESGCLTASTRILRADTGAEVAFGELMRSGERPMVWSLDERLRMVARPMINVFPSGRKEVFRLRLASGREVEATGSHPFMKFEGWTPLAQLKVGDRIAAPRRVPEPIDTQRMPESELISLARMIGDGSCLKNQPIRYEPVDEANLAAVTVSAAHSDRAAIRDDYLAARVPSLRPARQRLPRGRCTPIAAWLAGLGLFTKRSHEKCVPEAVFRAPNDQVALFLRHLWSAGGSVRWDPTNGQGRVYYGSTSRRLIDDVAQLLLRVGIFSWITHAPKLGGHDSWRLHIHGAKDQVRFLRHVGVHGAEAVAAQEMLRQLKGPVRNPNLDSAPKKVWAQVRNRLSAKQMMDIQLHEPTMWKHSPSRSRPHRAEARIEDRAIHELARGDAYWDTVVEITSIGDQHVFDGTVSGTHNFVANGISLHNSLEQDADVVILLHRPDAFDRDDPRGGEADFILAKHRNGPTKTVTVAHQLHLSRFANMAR

[11] = target: Heat shock protein HSP 90-alpha (Homo sapiens, UniProt P07900); format: functional, organism-based
Protein RecA = target: T2, Protein RecA (Mycobacterium tuberculosis, UniProt P9WHJ3); test: Fluorescence Cell-Free Homogeneous Dose Retest to Identify Inhibitors of RecA-Intein Splicing Activity. [Related pubchem assays (depositor defined):AID2097, AID2223, AID489010, AID492950]; format: functional
T2 sequence (P9WHJ3 whole entry): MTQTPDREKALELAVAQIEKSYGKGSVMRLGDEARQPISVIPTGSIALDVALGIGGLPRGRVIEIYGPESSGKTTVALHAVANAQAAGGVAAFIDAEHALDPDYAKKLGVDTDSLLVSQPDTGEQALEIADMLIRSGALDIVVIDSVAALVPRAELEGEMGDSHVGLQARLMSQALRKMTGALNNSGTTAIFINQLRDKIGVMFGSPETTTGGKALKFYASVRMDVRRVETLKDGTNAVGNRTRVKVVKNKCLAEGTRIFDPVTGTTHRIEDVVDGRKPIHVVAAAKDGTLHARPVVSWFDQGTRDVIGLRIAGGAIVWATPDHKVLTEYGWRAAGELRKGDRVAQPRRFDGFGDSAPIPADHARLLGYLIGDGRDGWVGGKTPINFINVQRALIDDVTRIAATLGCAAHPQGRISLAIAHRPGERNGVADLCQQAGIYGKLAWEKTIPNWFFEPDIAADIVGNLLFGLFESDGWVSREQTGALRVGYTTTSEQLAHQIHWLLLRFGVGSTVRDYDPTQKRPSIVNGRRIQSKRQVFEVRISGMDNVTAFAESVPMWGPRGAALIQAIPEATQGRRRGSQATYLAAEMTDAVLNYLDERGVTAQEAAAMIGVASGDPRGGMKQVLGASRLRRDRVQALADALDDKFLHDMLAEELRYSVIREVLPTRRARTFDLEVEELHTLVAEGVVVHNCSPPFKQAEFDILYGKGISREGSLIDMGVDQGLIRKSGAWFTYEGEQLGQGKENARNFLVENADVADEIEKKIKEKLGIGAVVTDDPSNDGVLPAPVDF

Beta Lactamase = Beta Lactamase (Pseudomonas aeruginosa, UniProt Q932Y6); test: BLA reporter interference, concentration series – BLA reporter cells, FRET fluorescence, artefact control for TLR9-MyD88 binding inhibitor project, dose response (AID 588341); format: cell-based;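 also: cell based assay in CHO-K1 cells stably expressing beta-lactamase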
[12] = reduction of Shn3 3'UTR-driven luciferase in osteoblasts – cell-based, Clone20 osteoblasts, firefly luciferase, cherry-picked, dose response (AID 624132); format: functional;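 also: firefly luciferase luminescence from reporter carrying the Shn3 3'UTR in osteoblasts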
[13] = target: ATP-binding cassette sub-family B member 6 (Homo sapiens, UniProt Q9NP58); test: concentration-dependent ABCB6 porphyrin transport blockade – K562-ABCB6 cells, flow cytometry, cherry pick 1, dose response (AID 623955); format: functional; conditions: read-out: EC50_MICROM
[14] = loss of viability in HepG2 cells – cell-based, CellTiter-Glo, cherry-picked, cytotoxicity control for Shn3 inhibitor project, dose response (AID 624134); format: functional
[15] = non-specific 3'UTR reporter inhibition in Clone20-Shn3RL – cell-based, Renilla luciferase, cherry-picked, counter-screen for Shn3 inhibitor project, dose response (AID 624133); format: functional
Fatty acid synthase [16] = target: T3, Fatty acid synthase (Homo sapiens, UniProt P49327); test: inhibition of human FAS-TE enzyme activity – biochemical, endpoint fluorescence intensity, uHTS hits, dose response (AID 624327); format: functional;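 also: fluorescence from hydrolysis of an O-methyl fluorescein acyl ester substrate by the enzyme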
Fatty acid synthase [17] = target: T3, Fatty acid synthase; test: inhibition of human FAS-TE enzyme activity – biochemical, kinetic fluorescence intensity, dose response (AID 624326); format: functional;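 also: rate of fluorescence rise from hydrolysis of a fluorogenic O-methyl fluorescein ester substrate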
Paired box protein Pax-8 = Paired box protein Pax-8 (Homo sapiens, UniProt Q06710); test: PAX8 transcriptional activity inhibition in RMG-I – RMG-I cells, luciferase, cherry-pick, dose response (AID 687027); format: functional, cell-based;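 also: luciferase reporter driven by Pax8 target thyroperoxidase promoter measured by SteadyGlo luminescence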
[18] = inhibitors acting on PAX2 in cells – cell-based, plate reader, dry powder samples, selectivity assay for PAX8 inhibitor project, dose response (AID 743048); format: functional;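 also: HEK293 cells carrying a WT1 promoter luciferase reporter driven by expressed Pax2; potency is for inhibition of Pax2 driven reporter signal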
[19] = COV362 cell viability loss – plate reader, dry powder, SA12, cytotoxicity control for PAX8 inhibitor project, dose response (AID 743144); format: functional, cell-based
[20] = toxicity toward immortalized ovarian surface epithelium – cell-based, plate reader, dry powder samples, cytotoxicity control for PAX8 inhibitor project, dose response (AID 743045); format: functional
[21] = A2780 cell killing – plate reader, dry powder samples, cytotoxicity control, dose response (AID 743046); format: functional, cell-based
[22] = OVCAR-3 cell viability loss – plate reader, dry powder samples, PAX8 inhibitor project, dose response (AID 743044); format: functional, cell-based
[23] = PAX5 cellular inhibition readout – cell-based, plate reader, dry powder samples, selectivity assay for PAX8 inhibitor project, dose response (AID 743047); format: functional;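 also: HEK293 cells carrying a Pax5 driven CD19 promoter luciferase reporter; potency of inhibitors that lower reporter luminescence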
[24] = IGROV1 cell killing – plate reader, dry powder samples, PAX8 inhibitor project, dose response (AID 743043); format: functional, cell-based; conditions: IGROV-1
[25] = OVCAR4 cell viability loss – plate reader, dry powder, SA11, cytotoxicity control for PAX8 inhibitor project, dose response (AID 743150); format: functional, cell-based; conditions: OVCAR-4
[26] = COV434 cell viability loss – plate reader, dry powder, SA7, cytotoxicity control for PAX8 inhibitor project, dose response (AID 743145); format: functional, cell-based
[27] = OV-90 cell viability loss – plate reader, dry powder, SA8, PAX8 inhibitor project, dose response (AID 743149); format: functional, cell-based
[28] = PAX8-dependent cell viability loss – plate reader, dry powder, dose response (AID 743049); format: functional, cell-based
Escherichia coli = test: microbe, parasite or virus in culture
[29] = viability of uninfected HEp-2 cells – cell-based, HTS, cytotoxicity control for RSV inhibitor project, dose response (AID 2410); format: functional; conditions: human respiratory syncytial virus
[30] = system: Streptococcus sp. 'group A'; test: Streptococcus pyogenes SK(-)GAS viability under kanamycin – luminescence, BacTiterGlo, confirmation, counter-screen for streptokinase expression inhibitor project, dose response (AID 1900); format: functional, organism-based
Streptokinase A = target: T4, Streptokinase A (Streptococcus pyogenes serotype M1, UniProt P10520); test: viability-normalized secreted streptokinase activity reduction – plasminogen activation absorbance, OD405, dose response (AID 1914); format: functional, Streptococcus pyogenes M1 GAS;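 also: secreted streptokinase activity via plasminogen activation per viability signal from cell pellet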
T4 sequence (P10520 whole entry): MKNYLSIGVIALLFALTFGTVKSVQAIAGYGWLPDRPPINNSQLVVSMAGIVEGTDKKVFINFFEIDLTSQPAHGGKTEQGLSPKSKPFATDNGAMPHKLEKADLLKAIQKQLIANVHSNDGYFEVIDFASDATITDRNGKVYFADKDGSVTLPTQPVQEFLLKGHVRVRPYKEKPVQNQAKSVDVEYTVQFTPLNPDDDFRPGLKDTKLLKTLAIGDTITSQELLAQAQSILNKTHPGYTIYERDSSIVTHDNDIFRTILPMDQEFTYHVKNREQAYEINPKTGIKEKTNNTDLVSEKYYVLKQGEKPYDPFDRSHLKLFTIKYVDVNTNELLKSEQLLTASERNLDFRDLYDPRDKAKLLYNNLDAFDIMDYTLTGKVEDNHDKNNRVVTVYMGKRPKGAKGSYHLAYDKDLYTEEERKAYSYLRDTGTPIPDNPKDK

Streptococcus = test: GAS UMAA2166 growth inhibition – luminescence, BacTiterGlo, counter-screen for streptokinase expression inhibitor project, dose response (AID 1915); format: functional, organism-based;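 also: potency for reduction of bacterial viability or growth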
[31] = Luminescence Cell-Based Dose Retest to Confirm Inhibitors of Cancer Stem Cells. [Related pubchem assays (depositor defined):AID2717, AID2721]; format: functional; conditions: Homo sapiens
[32] = target: Neurotensin receptor type 1 (Homo sapiens, UniProt P30989); format: functional;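 also: Image-based confirmatory dose-response assay measuring agonist activity at NTR1; NTR1-expressing U2OS osteosarcoma cells imaged for beta-arrestin GFP spot formation; agonist potency where compounds increase beta-arrestin recruitment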
[33] = target: T5, Endoribonuclease toxin MazF (Escherichia coli K-12, UniProt P0AE70); test: activation of MazEF endoribonuclease cleavage – biochemical, fluorescence, single-stranded RNA substrate, uHTS hits, dose response (AID 588481); format: functional
[34] = target: T5, Endoribonuclease toxin MazF; test: substrate-only fluorescence increase artefacts – biochemical, single-stranded RNase substrate, counter-screen for MazEF activator project, dose response (AID 588502); format: functional

T3 sequence (P49327 whole entry): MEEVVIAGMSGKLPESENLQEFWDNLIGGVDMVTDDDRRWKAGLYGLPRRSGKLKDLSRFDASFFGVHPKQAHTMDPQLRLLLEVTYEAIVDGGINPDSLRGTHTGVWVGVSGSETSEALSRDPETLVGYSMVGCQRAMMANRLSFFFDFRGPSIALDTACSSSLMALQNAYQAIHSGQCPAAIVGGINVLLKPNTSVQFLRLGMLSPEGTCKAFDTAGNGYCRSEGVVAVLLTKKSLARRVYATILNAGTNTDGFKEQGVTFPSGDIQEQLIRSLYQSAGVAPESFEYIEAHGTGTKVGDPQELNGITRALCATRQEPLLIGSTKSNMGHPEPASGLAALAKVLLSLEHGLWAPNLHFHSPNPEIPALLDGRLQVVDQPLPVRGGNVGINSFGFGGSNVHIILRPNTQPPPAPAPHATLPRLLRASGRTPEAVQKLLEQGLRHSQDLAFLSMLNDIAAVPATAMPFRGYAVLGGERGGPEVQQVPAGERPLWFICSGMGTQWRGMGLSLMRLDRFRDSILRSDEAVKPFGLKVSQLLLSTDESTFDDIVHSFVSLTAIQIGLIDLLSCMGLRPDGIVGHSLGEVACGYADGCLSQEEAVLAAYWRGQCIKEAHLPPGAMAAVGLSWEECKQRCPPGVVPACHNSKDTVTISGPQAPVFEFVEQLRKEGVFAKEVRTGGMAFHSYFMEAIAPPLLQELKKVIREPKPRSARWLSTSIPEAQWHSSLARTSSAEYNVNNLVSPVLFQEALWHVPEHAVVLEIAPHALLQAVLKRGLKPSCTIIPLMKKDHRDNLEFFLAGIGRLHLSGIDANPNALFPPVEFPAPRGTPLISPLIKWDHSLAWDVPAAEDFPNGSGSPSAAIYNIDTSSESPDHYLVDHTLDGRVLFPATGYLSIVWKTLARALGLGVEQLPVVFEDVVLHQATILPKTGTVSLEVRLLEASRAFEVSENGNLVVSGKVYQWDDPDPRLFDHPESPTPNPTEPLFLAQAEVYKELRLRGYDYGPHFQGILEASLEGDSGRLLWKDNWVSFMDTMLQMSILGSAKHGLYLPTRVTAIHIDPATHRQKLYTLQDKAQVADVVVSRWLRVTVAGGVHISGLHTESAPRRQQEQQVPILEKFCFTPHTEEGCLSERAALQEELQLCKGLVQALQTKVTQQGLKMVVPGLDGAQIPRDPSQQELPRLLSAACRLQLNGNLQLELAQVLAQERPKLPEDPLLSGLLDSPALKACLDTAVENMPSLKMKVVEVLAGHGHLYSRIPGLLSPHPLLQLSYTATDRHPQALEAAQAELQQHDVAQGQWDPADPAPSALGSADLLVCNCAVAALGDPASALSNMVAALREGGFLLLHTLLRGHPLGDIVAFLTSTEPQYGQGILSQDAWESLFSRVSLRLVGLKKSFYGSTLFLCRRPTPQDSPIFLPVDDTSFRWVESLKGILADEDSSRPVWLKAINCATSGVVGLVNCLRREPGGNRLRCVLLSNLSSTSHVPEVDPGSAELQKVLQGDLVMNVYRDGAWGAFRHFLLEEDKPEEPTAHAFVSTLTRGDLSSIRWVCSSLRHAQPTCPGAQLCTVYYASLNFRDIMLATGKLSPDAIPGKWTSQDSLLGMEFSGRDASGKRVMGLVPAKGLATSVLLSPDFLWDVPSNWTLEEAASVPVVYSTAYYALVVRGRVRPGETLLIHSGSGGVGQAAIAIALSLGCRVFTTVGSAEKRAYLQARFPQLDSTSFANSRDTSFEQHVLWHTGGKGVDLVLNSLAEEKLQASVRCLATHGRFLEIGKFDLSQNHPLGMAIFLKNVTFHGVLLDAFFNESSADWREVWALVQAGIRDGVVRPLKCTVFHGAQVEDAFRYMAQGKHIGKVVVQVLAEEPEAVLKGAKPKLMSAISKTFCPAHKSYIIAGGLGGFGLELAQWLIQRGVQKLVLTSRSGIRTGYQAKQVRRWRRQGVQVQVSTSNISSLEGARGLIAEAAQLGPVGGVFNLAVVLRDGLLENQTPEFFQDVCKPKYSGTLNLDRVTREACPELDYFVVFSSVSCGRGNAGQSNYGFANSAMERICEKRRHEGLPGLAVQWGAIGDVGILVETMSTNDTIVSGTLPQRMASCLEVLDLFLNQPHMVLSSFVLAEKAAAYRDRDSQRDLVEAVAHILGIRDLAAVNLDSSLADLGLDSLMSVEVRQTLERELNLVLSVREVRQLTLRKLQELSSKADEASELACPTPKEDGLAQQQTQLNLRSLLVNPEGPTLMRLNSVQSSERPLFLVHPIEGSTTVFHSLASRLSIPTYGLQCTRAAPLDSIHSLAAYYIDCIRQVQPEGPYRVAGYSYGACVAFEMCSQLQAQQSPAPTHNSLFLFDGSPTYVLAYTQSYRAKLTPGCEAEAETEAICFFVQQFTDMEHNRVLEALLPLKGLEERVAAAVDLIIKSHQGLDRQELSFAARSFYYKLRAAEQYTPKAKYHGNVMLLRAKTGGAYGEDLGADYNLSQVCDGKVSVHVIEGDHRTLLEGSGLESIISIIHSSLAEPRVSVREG
T5 sequence (P0AE70 whole entry): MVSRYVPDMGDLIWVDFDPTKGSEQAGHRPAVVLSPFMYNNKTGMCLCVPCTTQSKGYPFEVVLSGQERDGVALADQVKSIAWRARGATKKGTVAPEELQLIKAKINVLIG
Neurotensin receptor type 1, sequence (P30989 whole entry): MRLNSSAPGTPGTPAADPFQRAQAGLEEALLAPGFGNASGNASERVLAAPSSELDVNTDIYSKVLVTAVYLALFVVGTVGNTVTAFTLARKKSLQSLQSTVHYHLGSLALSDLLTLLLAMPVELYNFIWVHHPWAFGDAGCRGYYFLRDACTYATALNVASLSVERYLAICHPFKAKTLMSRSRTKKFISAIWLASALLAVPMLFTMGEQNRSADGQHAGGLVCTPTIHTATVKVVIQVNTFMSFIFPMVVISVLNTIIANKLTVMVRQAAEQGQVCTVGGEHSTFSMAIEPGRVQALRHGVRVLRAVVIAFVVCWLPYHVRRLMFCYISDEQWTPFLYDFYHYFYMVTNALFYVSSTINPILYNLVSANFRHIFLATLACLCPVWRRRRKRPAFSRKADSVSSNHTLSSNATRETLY
Beta Lactamase, sequence (Q932Y6 whole entry): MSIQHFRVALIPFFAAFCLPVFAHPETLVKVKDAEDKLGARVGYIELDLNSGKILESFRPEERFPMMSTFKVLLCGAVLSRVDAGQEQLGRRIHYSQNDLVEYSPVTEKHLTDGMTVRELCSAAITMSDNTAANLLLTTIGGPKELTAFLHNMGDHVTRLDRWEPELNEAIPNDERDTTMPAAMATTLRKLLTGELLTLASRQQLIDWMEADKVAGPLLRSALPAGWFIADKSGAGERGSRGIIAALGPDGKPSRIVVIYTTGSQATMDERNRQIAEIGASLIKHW
Nucleotide-binding oligomerization domain-containing protein 2, sequence (Q9HC29 whole entry, the tested form may be a part): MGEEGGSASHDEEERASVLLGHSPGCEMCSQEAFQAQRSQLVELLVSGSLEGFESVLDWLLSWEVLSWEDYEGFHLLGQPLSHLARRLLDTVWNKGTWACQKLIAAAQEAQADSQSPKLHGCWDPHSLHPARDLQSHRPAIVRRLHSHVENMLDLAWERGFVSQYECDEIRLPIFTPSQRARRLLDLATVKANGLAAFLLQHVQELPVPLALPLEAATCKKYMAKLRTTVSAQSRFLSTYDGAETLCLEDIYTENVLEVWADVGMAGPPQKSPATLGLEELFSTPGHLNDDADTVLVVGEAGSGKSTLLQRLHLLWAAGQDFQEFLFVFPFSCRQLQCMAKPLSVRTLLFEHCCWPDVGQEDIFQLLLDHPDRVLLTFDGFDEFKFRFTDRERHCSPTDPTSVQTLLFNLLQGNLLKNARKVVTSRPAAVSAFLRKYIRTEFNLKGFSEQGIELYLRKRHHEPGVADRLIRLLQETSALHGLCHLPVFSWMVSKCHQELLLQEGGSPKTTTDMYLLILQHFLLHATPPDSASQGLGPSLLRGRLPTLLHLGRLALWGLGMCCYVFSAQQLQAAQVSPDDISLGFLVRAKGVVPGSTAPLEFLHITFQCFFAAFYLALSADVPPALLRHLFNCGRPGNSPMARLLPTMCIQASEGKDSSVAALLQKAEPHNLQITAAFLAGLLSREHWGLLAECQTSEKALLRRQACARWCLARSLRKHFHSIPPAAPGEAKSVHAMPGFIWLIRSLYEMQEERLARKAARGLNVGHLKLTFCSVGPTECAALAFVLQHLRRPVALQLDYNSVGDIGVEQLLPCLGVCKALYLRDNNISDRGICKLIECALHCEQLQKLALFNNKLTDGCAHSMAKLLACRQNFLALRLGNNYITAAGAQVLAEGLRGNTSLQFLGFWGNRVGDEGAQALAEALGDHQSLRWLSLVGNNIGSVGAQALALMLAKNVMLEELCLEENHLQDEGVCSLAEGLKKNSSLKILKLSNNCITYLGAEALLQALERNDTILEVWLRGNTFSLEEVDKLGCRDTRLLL
Paired box protein Pax-8, sequence (Q06710 whole entry): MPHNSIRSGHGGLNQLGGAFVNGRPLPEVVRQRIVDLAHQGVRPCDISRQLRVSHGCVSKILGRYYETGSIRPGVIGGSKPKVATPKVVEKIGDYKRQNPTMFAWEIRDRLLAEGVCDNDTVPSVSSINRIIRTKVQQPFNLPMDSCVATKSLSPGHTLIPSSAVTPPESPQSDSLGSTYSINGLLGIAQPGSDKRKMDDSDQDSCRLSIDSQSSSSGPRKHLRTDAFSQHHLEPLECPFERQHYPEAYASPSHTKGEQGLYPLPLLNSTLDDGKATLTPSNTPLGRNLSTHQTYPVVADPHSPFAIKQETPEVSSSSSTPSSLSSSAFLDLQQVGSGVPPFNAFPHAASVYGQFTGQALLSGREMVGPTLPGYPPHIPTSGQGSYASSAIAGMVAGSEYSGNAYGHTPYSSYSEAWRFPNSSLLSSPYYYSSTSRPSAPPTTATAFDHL

C[C@@H]1CN([C@@H](C)CO)C(=O)c2cccc(NC(=O)Nc3cccc4ccccc34)c2O[C@H]1CN(C)S(=O)(=O)c1ccc2c(c1)OCCCO2
AC50 [1]: 32.2 µM (active) | AC50 (INS1): 253 µM (active)

Cc1cccc(CS(=O)(=O)c2ncc(Cl)c(C(=O)Nc3ccc(F)cc3)n2)c1
EC50 [2]: 12.2 µM (active) | EC50 (HEK293 [3]): 8.42 µM (active) | EC50 [4]: 22 µM (active) | EC50 [5]: 12.4 µM (active) | IC50 (HEK293 [6]): > 20 µM (inactive) | EC50 [7]: > 20 µM (inactive) | IC50 (HEK293 [8]): 10.8 µM (inactive) | IC50 (HEK293 [9]): > 20 µM (inactive) | IC50 (CHO): 2.72 µM (active) | AC50 [10]: 3.25 µM (active) | AC50 [11]: 1.73 µM (active) | EC50 (Protein RecA): 2.19 µM (active) | IC50 (Beta Lactamase): 9.48 µM (active) | AC50 [12]: 0.55 µM (active) | EC50 [13]: 80.4 µM (active) | AC50 [14]: 29.2 µM (active) | AC50 [15]: 6.54 µM (active) | IC50 (Fatty acid synthase [16]): 9.64 µM (active) | IC50 (Fatty acid synthase [17]): 19.4 µM (active) | AC50 (Paired box protein Pax-8): 9.28 µM (active) | AC50 [18]: 14.8 µM (active) | AC50 [19]: 7.95 µM (active) | AC50 [20]: 10.5 µM (active) | AC50 [21]: 23.8 µM (active) | AC50 [22]: 7.88 µM (active) | AC50 [23]: 31.4 µM (active) | AC50 [24]: 9.96 µM (active) | AC50 [25]: 10.5 µM (active) | AC50 [26]: 4.11 µM (active) | AC50 [27]: 8.4 µM (active) | AC50 [28]: 12.7 µM (active) | AC50 (Escherichia coli): 25.5 µM (active)

O=[N+]([O-])c1ccc(-c2nc(Nc3cccc(O)c3)c3ccccc3n2)cc1
CC50 [29]: 22 µM (active) | EC50 [30]: 11.4 µM (active) | EC50 (Streptokinase A): > 150 µM (not active) | EC50 (Streptococcus): 8.36 µM (active) | AC50 [31]: 3.24 µM (active) | EC50 [32]: 15.3 µM (active) | EC50 [33]: > 99 µM (inactive) | EC50 [34]: > 99 µM (inactive) | IC50 (Fatty acid synthase [16]): 12.9 µM (active) | IC50 (Fatty acid synthase [17]): 13.2 µM (active)
